Reference: patent US12673945B2, “3-((8-((1H-pyrazol-4-yl)amino)imidazo[1,2-a]pyridin-3-yl)ethinyl)-n-phenylbenzamide derivative, method for preparing same, and pharmaceutical composition containing same as active ingredient for prevention or treatment of cancer” (DAEGU-GYEONGBUK MEDICAL INNOVATION FOUNDATION, priority 2020, dated 2026)

Legend:
Assay in all cases: scanMAX Kinase panel (DiscoverX)
Type in all cases: binding
LCK = molecular target: T1, LCK (Homo sapiens, UniProt P06239); conditions: read-out: % Cont @ 1 uM
T1 construct: purchased DiscoverX scanMAX Kinase panel
T1 sequence (P06239 whole entry): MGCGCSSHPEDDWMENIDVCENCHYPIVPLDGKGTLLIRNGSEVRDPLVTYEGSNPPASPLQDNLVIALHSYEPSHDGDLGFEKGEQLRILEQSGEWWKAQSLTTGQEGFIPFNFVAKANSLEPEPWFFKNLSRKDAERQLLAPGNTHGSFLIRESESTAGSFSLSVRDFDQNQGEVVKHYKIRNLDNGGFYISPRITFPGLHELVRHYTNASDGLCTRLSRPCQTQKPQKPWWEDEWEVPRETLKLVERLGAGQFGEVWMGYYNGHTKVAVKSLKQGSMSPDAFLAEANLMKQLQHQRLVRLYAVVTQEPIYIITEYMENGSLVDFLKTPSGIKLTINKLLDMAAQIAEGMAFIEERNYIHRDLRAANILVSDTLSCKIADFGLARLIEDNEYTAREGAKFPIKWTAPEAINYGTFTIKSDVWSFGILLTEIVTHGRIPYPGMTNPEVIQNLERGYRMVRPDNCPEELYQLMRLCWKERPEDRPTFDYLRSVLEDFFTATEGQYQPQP
Summary of the method: (§1)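 One concentration only, 1 μM in DMSO, in a panel-based kinase selectivity format; output given as percentage of control.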

MINK = molecular target: T2, MINK (Homo sapiens, UniProt Q8N4C8); conditions: read-out: % Cont @ 1 uM
T2 construct: purchased DiscoverX scanMAX Kinase panel
T2 sequence (Q8N4C8 whole entry): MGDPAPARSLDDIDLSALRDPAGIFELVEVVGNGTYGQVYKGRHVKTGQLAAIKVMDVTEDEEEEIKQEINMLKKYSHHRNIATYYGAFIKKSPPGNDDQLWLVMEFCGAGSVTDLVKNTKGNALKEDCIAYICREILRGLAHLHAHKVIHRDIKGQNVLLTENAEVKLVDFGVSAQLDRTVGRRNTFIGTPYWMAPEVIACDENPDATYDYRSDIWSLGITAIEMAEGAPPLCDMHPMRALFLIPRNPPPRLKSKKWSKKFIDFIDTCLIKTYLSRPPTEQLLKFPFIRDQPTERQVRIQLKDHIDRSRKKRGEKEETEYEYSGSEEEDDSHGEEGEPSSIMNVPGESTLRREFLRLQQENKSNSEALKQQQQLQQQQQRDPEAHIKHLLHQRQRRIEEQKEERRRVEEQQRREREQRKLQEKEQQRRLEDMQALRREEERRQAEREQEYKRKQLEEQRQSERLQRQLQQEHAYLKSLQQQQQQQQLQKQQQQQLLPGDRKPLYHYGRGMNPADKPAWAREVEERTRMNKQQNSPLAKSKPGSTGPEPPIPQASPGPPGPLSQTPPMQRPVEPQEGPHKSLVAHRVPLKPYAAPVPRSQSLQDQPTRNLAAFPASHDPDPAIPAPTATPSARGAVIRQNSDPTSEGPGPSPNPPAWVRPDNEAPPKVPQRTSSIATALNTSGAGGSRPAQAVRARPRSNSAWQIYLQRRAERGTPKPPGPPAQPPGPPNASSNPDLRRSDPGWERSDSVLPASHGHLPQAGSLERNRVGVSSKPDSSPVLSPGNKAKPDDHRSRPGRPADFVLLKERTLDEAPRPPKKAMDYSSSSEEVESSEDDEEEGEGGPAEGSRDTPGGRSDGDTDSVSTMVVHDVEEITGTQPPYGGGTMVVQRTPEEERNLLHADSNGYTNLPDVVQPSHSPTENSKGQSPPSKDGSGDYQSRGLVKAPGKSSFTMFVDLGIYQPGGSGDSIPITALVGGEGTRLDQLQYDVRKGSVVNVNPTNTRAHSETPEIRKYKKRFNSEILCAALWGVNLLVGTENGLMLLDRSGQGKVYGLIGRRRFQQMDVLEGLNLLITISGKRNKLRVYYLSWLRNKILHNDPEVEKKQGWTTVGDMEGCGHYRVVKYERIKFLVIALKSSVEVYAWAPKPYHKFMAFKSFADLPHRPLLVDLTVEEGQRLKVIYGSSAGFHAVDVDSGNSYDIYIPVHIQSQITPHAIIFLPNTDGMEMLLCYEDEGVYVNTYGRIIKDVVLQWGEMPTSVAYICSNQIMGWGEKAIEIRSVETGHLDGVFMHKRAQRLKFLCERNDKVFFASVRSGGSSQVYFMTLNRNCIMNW
Summary of the method: as §1

RET = molecular target: T3, RET (Homo sapiens, UniProt P07949); conditions: read-out: % Cont @ 1 uM
T3 construct: purchased DiscoverX scanMAX Kinase panel
Summary of the method: as §1

IRAK1 = molecular target: T4, IRAK1 (Homo sapiens, UniProt P51617); conditions: read-out: % Cont @ 1 uM
T4 construct: purchased DiscoverX scanMAX Kinase panel
Summary of the method: as §1

NEK4 = molecular target: T5, NEK4 (Homo sapiens, UniProt P51957); conditions: read-out: % Cont @ 1 uM
T5 construct: purchased DiscoverX scanMAX Kinase panel
Summary of the method: as §1

ZAK = molecular target: T6, ZAK (Homo sapiens, UniProt Q9NYL2); conditions: read-out: % Cont @ 1 uM
T6 construct: purchased DiscoverX scanMAX Kinase panel
Summary of the method: as §1

p38-beta = molecular target: T7, p38-beta (Homo sapiens, UniProt Q15759); conditions: read-out: % Cont @ 1 uM
T7 construct: purchased DiscoverX scanMAX Kinase panel
Summary of the method: as §1

MUSK = molecular target: T8, MUSK (Homo sapiens, UniProt O15146); conditions: read-out: % Cont @ 1 uM
T8 construct: purchased DiscoverX scanMAX Kinase panel
Summary of the method: as §1

AURKC = molecular target: T9, AURKC (Homo sapiens, UniProt Q9UQB9); conditions: read-out: % Cont @ 1 uM
T9 construct: purchased DiscoverX scanMAX Kinase panel
Summary of the method: as §1

[1] = molecular target: T10, EGFR(L747-S752del, P753S) (Homo sapiens, UniProt P00533, DEL747-752/P753S)
T10 construct: purchased DiscoverX scanMAX Kinase panel
Summary of the method: as §1

DDR2 = molecular target: T11, DDR2 (Homo sapiens, UniProt Q16832); conditions: read-out: % Cont @ 1 uM
T11 construct: purchased DiscoverX scanMAX Kinase panel
Summary of the method: as §1

SIK = molecular target: T12, SIK (Homo sapiens, UniProt P57059)
T12 construct: purchased DiscoverX scanMAX Kinase panel
T12 sequence (P57059 whole entry): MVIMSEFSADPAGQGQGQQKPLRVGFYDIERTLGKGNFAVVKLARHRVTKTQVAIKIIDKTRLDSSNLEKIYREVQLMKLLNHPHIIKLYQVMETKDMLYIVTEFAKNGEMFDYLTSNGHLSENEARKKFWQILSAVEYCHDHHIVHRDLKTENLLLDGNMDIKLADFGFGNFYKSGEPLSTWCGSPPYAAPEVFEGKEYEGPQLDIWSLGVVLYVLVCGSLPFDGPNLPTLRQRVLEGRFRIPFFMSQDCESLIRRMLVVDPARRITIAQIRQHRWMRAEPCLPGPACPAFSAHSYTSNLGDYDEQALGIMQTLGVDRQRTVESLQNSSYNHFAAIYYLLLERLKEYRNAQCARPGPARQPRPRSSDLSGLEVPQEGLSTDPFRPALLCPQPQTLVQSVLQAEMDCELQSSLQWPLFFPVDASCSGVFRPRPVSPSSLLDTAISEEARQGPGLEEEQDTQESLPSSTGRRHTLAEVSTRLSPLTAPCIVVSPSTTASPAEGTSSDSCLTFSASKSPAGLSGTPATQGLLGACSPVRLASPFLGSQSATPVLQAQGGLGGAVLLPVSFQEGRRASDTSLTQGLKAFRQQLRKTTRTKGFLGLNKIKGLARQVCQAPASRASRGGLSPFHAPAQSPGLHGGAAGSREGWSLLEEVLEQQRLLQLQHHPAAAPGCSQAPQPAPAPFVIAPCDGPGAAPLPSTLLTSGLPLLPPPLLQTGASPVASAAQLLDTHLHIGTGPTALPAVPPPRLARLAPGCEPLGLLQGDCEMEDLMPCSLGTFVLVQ
Summary of the method: as §1

MKNK1 = molecular target: T13, MKNK1 (Homo sapiens, UniProt Q9BUB5); conditions: read-out: % Cont @ 1 uM
T13 construct: purchased DiscoverX scanMAX Kinase panel
Summary of the method: as §1

TRKA = molecular target: T14, TRKA (Homo sapiens, UniProt P04629); conditions: read-out: % Cont @ 1 uM
T14 construct: purchased DiscoverX scanMAX Kinase panel
T14 sequence (P04629 33-796): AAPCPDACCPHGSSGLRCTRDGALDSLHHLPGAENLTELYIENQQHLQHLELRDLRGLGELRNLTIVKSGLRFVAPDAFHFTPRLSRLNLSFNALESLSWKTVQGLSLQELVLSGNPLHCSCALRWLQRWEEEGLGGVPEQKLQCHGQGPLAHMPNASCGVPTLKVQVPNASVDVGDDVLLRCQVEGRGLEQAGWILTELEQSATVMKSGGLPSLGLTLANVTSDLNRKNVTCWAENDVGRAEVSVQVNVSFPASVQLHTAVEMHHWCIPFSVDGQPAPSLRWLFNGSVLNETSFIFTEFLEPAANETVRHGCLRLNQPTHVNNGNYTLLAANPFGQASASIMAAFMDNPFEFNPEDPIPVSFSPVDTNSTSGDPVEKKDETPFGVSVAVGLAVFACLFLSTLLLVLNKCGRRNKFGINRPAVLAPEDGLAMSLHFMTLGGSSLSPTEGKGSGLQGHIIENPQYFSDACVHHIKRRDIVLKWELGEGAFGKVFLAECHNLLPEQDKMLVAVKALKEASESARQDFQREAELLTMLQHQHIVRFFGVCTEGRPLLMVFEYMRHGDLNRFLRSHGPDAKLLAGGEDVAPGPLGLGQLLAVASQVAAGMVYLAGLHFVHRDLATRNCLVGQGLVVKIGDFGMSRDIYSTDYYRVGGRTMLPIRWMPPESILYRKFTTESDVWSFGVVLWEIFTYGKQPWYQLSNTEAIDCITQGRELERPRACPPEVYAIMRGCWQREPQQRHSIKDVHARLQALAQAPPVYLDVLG
Summary of the method: as §1

KIT(D816H) = molecular target: T15, KIT(D816H) (Homo sapiens, UniProt P10721, D816H); conditions: read-out: % Cont @ 1 uM
T15 construct: purchased DiscoverX scanMAX Kinase panel
T15 sequence (P10721 26-976 D816H): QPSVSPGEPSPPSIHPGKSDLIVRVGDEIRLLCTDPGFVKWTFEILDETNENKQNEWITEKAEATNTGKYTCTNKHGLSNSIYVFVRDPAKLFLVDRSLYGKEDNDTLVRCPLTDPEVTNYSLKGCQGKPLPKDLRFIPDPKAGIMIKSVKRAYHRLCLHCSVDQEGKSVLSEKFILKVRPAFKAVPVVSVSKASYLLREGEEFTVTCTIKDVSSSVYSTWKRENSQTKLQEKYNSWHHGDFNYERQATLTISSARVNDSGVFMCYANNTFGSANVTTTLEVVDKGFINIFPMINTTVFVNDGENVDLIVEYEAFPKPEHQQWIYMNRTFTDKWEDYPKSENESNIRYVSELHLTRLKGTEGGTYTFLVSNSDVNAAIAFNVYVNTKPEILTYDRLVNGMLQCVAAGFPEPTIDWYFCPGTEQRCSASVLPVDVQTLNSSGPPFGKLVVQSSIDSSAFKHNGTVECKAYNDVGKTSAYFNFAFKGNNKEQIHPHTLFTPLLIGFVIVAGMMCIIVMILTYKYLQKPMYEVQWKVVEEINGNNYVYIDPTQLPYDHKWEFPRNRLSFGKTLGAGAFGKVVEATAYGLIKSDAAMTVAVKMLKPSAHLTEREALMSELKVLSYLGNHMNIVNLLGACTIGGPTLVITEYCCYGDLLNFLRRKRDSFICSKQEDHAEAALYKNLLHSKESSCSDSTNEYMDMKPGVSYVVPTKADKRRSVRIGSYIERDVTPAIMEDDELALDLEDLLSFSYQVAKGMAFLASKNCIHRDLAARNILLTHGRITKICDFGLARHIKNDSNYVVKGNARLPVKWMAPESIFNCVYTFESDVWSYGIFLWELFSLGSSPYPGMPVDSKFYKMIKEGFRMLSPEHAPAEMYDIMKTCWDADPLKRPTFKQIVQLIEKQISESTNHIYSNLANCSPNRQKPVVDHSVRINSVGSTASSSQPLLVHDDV
Summary of the method: as §1

p38-delta = molecular target: T16, p38-delta (Homo sapiens, UniProt O15264); conditions: read-out: % Cont @ 1 uM
T16 construct: purchased DiscoverX scanMAX Kinase panel
Summary of the method: as §1

CIT = molecular target: T17, CIT (Homo sapiens, UniProt O14578)
T17 construct: purchased DiscoverX scanMAX Kinase panel
Summary of the method: as §1

TAOK3 = molecular target: T18, TAOK3 (Homo sapiens, UniProt Q9H2K8); conditions: read-out: % Cont @ 1 uM
T18 construct: purchased DiscoverX scanMAX Kinase panel
Summary of the method: as §1

EGFR(L858R) = molecular target: T19, EGFR(L858R) (Homo sapiens, UniProt P00533, L858R)
T19 construct: purchased DiscoverX scanMAX Kinase panel
Summary of the method: as §1

RIOK3 = molecular target: T20, RIOK3 (Homo sapiens, UniProt O14730); conditions: read-out: % Cont @ 1 uM
T20 construct: purchased DiscoverX scanMAX Kinase panel
T20 sequence (O14730 whole entry): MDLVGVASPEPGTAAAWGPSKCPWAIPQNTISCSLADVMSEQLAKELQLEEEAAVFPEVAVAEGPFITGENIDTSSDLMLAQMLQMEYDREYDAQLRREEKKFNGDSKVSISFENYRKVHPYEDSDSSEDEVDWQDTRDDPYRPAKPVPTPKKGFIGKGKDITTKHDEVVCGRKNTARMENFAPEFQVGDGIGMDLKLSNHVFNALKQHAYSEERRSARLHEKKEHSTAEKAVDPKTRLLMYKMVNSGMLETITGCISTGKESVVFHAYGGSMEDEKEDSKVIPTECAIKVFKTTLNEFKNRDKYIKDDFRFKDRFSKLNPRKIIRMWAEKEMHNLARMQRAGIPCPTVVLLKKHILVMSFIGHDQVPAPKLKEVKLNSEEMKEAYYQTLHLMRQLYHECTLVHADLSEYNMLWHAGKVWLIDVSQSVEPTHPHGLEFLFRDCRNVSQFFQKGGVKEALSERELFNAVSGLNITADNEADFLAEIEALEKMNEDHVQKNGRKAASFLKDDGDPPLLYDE
Summary of the method: as §1

TRKB = molecular target: T21, TRKB (Homo sapiens, UniProt Q16620); conditions: read-out: % Cont @ 1 uM
T21 construct: purchased DiscoverX scanMAX Kinase panel
Summary of the method: as §1

[2] = molecular target: T22, ABL1(F317I)-nonphosphorylated (Homo sapiens, UniProt P00519, F317I); conditions: read-out: % Cont @ 1 uM
T22 construct: purchased DiscoverX
Summary of the method: as §1

LIMK1 = molecular target: T23, LIMK1 (Homo sapiens, UniProt P53667); conditions: read-out: % Cont @ 1 uM
T23 construct: purchased DiscoverX scanMAX Kinase panel
Summary of the method: as §1

FGFR2 = molecular target: T24, FGFR2 (Homo sapiens, UniProt P21802); conditions: read-out: % Cont @ 1 uM
T24 construct: purchased DiscoverX scanMAX Kinase panel
Summary of the method: as §1

LTK = molecular target: T25, LTK (Homo sapiens, UniProt P29376); conditions: read-out: % Cont @ 1 uM
T25 construct: purchased DiscoverX scanMAX Kinase panel
Summary of the method: as §1

TAOK1 = molecular target: T26, TAOK1 (Homo sapiens, UniProt Q7L7X3); conditions: read-out: % Cont @ 1 uM
T26 construct: purchased DiscoverX scanMAX Kinase panel
Summary of the method: as §1

BRK = molecular target: T27, BRK (Homo sapiens, UniProt Q13882); conditions: read-out: % Cont @ 1 uM
T27 construct: purchased DiscoverX scanMAX Kinase panel
Summary of the method: as §1

CSF1R = molecular target: T28, CSF1R (Homo sapiens, UniProt P07333); conditions: read-out: % Cont @ 1 uM
T28 construct: purchased DiscoverX scanMAX Kinase panel
Summary of the method: as §1

FLT3(R834Q) = molecular target: T29, FLT3(R834Q) (Homo sapiens, UniProt P36888, R834Q); conditions: read-out: % Cont @ 1 uM
T29 construct: purchased DiscoverX scanMAX Kinase panel
Summary of the method: as §1

LRRK2 = molecular target: T30, LRRK2 (Homo sapiens, UniProt Q5S007); conditions: read-out: % Cont @ 1 uM
T30 construct: purchased DiscoverX scanMAX Kinase panel
Summary of the method: as §1

EGFR(S752-I759del) = molecular target: T31, EGFR(S752-I759del) (Homo sapiens, UniProt P00533, DEL752-759)
T31 construct: purchased DiscoverX scanMAX Kinase panel
Summary of the method: as §1

KIT(D816V) = molecular target: T32, KIT(D816V) (Homo sapiens, UniProt P10721, D816V); conditions: read-out: % Cont @ 1 uM
T32 construct: purchased DiscoverX scanMAX Kinase panel
T32 sequence (P10721 26-976 D816V): as the sequence (P10721 26-976 D816H) above, with H791V counted along it
Summary of the method: as §1

RIPK2 = molecular target: T33, RIPK2 (Homo sapiens, UniProt O43353); conditions: read-out: % Cont @ 1 uM
T33 construct: purchased DiscoverX scanMAX Kinase panel
Summary of the method: as §1

BMX = molecular target: T34, BMX (Homo sapiens, UniProt P51813); conditions: read-out: % Cont @ 1 uM
T34 construct: purchased DiscoverX scanMAX Kinase panel
Summary of the method: as §1

EGFR(L747-T751del, Sins) = molecular target: T35, EGFR(L747-T751del, Sins) (Homo sapiens, UniProt P00533, DEL747-750/T751S)
T35 construct: purchased DiscoverX scanMAX Kinase panel
Summary of the method: as §1

FLT3(K663Q) = molecular target: T36, FLT3(K663Q) (Homo sapiens, UniProt P36888, K663Q); conditions: read-out: % Cont @ 1 uM
T36 construct: purchased DiscoverX scanMAX Kinase panel
Summary of the method: as §1

PFCDPK1(P. falciparum) = molecular target: T37, PFCDPK1(P. falciparum) (Plasmodium falciparum, UniProt P62344); conditions: read-out: % Cont @ 1 uM
T37 construct: purchased DiscoverX scanMAX Kinase panel
Summary of the method: as §1

IKK-beta = molecular target: T38, IKK-beta (Homo sapiens, UniProt O14920); conditions: read-out: % Cont @ 1 uM
T38 construct: purchased DiscoverX scanMAX Kinase panel
Summary of the method: as §1

ABL2 = molecular target: T39, ABL2 (Homo sapiens, UniProt P42684); conditions: read-out: % Cont @ 1 uM
T39 construct: purchased DiscoverX scanMAX Kinase panel
Summary of the method: as §1

`Cc1cn(-c2cc(NC(=O)c3cc(C#Cc4cnc5c(Nc6cnn(C)c6)cccn45)c(C)cc3F)cc(C(C)(C)C#N)c2)cn1` [Example 1, N-(3-(2-cyanopropane-2-yl)-5-(4-methyl-1H-imidazol-1-yl)phenyl)-2-fluoro-4-methyl-5-((8-((1-methyl-1H-pyrazol-4-yl)amino)imidazo[1,2-a]pyridin-3-yl)ethynyl)benzamide] was tested, and the remaining binding at 1 µM (LCK) was 0.15%, the percent of control binding at 1 µM (MINK) was 2.4% and the remaining binding at 1 µM (RET) was 0%. For the same molecule, the percent of control binding at 1 µM (IRAK1) was 27%, the remaining binding at 1 µM (NEK4) was 28% and the remaining binding at 1 µM (ZAK) was 1.5%. It also gave a remaining binding at 1 µM (p38-beta) of 0.85%, a remaining binding at 1 µM (MUSK) of 5% and a remaining binding at 1 µM (AURKC) of 27%. The “% Cont @ 1 uM” value [1] was 1.3%, the remaining binding at 1 µM (DDR2) was 2% and the “% Cont @ 1 uM” value (SIK) was 2%. It also gave a remaining binding at 1 µM (MKNK1) of 23%, a remaining binding at 1 µM (TRKA) of 0.6% and a percent of control binding at 1 µM (KIT(D816H)) of 12%. For the same molecule, the percent of control binding at 1 µM (p38-delta) was 29%, the “% Cont @ 1 uM” value (CIT) was 0.1% and the remaining binding at 1 µM (TAOK3) was 1.6%. The “% Cont @ 1 uM” value (EGFR(L858R)) was 5.5%, the remaining binding at 1 µM (RIOK3) was 31% and the remaining binding at 1 µM (TRKB) was 0.6%. For the same molecule, the remaining binding at 1 µM [2] was 50%, the percent of control binding at 1 µM (LIMK1) was 33% and the remaining binding at 1 µM (FGFR2) was 30%. The remaining binding at 1 µM (LTK) was 3.4%, the remaining binding at 1 µM (TAOK1) was 11% and the remaining binding at 1 µM (BRK) was 13%. It also gave a remaining binding at 1 µM (CSF1R) of 0.2%, a remaining binding at 1 µM (FLT3(R834Q)) of 0.9% and a remaining binding at 1 µM (LRRK2) of 27%. The “% Cont @ 1 uM” value (EGFR(S752-I759del)) was 5.7%, the percent of control binding at 1 µM (KIT(D816V)) was 13% and the remaining binding at 1 µM (RIPK2) was 3%. For the same molecule, the remaining binding at 1 µM (BMX) was 6.7%, the “% Cont @ 1 uM” value (EGFR(L747-T751del, Sins)) was 11% and the remaining binding at 1 µM (FLT3(K663Q)) was 10.8%. The remaining binding at 1 µM (PFCDPK1(P. falciparum)) was 12%, the percent of control binding at 1 µM (IKK-beta) was 26% and the remaining binding at 1 µM (ABL2) was 0.4%.
